Values quoted from earlier work, collected in patent publication US20050124598A1, “Antibiotic compounds” (priority 2001, published 2005).

Target: PBP2a (Staphylococcus aureus, UniProt P07944)
Conditions: reported β-lactam inhibitors, literature values

PBP2a, sequence (P07944 whole entry): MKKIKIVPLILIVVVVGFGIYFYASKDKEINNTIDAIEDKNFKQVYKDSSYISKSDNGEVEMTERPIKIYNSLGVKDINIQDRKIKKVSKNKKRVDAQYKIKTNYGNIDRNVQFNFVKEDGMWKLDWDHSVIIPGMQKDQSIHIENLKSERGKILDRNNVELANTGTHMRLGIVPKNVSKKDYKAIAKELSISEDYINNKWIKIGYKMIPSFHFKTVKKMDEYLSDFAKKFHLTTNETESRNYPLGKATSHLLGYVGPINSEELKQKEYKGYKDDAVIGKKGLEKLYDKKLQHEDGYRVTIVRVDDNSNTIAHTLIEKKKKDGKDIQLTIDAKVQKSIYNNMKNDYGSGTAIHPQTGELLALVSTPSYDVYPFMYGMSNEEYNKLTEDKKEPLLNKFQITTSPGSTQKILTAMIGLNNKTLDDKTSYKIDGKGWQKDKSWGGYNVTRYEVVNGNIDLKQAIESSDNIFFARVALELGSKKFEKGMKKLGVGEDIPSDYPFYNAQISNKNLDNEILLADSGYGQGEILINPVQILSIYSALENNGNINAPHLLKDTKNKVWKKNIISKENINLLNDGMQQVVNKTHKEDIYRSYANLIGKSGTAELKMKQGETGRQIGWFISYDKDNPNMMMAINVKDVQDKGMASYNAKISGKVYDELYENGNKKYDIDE

Compound	IC50 for PBP2a [µg/mL]
NCCSCc1cnccc1SC1=C(C(=O)O)N2C(=O)[C@@H](NC(=O)/C(=N\O)c3nc(N)sc3Cl)[C@H]2SC1 [MC-02479]	0.5
NC(=O)C[n+]1ccc(S/C=C/C2=C(C(=O)[O-])N3C(=O)C(NC(=O)/C(=N\O)c4csc(N)n4)C3SC2)cc1 (centres unmarked) [TOC-39]	0.58
